{"source": "paper PMC10590756", "about": "“Glutarate regulates T cell metabolism and anti-tumour immunity” (Nature Metabolism, 2023)", "key": {"[1]": {"test_system": "primary murine CD8^+ T cells", "test": "Screen of T cell differentiation: CD62L/CD44 populations by flow cytometry", "assay_type": "cell-based, mouse", "from_the_text": "We first sought to investigate if compounds structurally related to 2HG could increase the TCM population of CD8^+ T cells. To carry out this analysis, we identified 19 structural analogues of 2HG; eight were commercially available and 11 were synthesized de novo for the purposes of this study (Table 1). We used esterified versions of most of the compounds used, so as to increase both potency and intracellular translocation. The octyl ester form of S-2HG was used as a positive control in these assays. We screened the compounds for effects on T cell differentiation at 400-µM levels (using the efficacy of S-2HG in CD8^+ T cells as a guide[11]) in culture media during the process of activation of isolated primary murine CD8^+ T cells.\nAfter 7 days of culture, we assessed the abundance of CD62L^hiCD44^hi (TCM-like) T cells by flow cytometry (Fig. 1a). We additionally determined the effect of each compound on cell growth and viability (Fig. 1b and Extended Data Fig. 1a).\nMouse CD8^+ T cells were isolated from mouse spleens using positive selection. Incubation with microbeads conjugated to monoclonal anti-mouse CD8α (Ly-2; isotype: rat IgG2a) antibody (catalogue no. 130-049-401, Miltenyi Biotec) was followed by magnetic bead isolation on a MACS column. WT mouse CD8^+ T cells were activated with anti-mouse CD3/CD28 Dynabeads (catalogue no. 11453D, Thermo Fisher Scientific) at a 1:1 cell:bead ratio. Purified OT1 CD8^+ T cells were activated with 1 µg ml^−1 of the OVA-derived peptide SIINFEKL (ProImmune). All mouse CD8^+ T cells were cultured in complete RPMI 1640 supplemented with 10% FCS, 100 U ml^−1 penicillin, 100 µg ml^−1 streptomycin, 55 µM 2-ME (catalogue no. 21985023, Gibco) and 10 U ml^−1 IL-2.\nSingle-cell suspensions were stained with LIVE/DEAD Fixable Near-IR Dead Cell Stain Kit (catalogue no. 10119, Thermo Fisher Scientific) followed by surface and intracellular staining with fluorochrome-labelled antibodies (Supplementary Tables 1 and 2). […]"}, "[2]": {"test_system": "human CD8^+ T cells", "test": "Glucose uptake assay", "assay_type": "cell-based", "conditions": "500 µM DEG, acute and chronic", "protocol": "Glucose uptake was determined using a Glucose Uptake Assay Kit (catalogue no. J1341, Promega Corporation). The assay was performed according to the manufacturer’s instructions. Data were acquired on the FLUOstar Omega."}, "[3]": {"test_system": "human CD19^+ CAR T cells", "test": "Growth of human CD19 CAR T cells", "assay_type": "cell-based", "conditions": "500 µM, 7 days"}, "[4]": {"parameters": "method as in PMID 29989593", "conditions": "approved by the European Union for use as a food additive; cited from earlier work"}}}
{"smiles": "CCOC(=O)CCCC(=O)OCC", "note": "[DEG, Diethyl glutarate]", "values": [{"measurement": "abundance of CD62L^hiCD44^hi (TCM-like) CD8^+ T cells", "setting": "[1]; 400 µM test compound, 7 days of culture", "result": "significantly increased"}, {"measurement": "effector memory T (TEM) cell population (CD62L^loCD44^hi)", "setting": "[1]; 7 days of culture with DEG", "result": "decreased"}, {"measurement": "CD62L^hiCD44^hi TCM population", "setting": "[1]; increasing concentrations of DEG, 7 days", "result": "increased the CD62L^hiCD44^hi TCM population in a dose-dependent manner"}, {"measurement": "rate of glucose uptake", "setting": "[2]", "result": "no changes"}, {"measurement": "growth of human CD19^+ CAR T cells", "setting": "[3]", "result": "did not affect the growth"}, {"measurement": "toxicity", "setting": "[4]", "result": "non-toxic"}]}
